IC50 data for one molecule are collected here from patent US7041698B2, “Hepatitis C virus inhibitors” (Bristol-Myers Squibb Company, priority 2002, dated 2006).

Experiment [1] has as its target T1, porcine pancreatic elastase (PPE) (Sus scrofa, UniProt P00772).
T1 construct: purchased Sigma
The experiment is described as follows: Specificity assay, porcine pancreatic elastase. The following applies: 2 hr pre-incubation at RT. It is filed as biochemical. The protocol: (§1) The specificities of compounds of the present invention were determined against a variety of serine proteases: human sputum elastase (HS), porcine pancreatic elastase (PPE) and human pancreatic chymotrypsin and one cysteine protease: human liver cathepsin B. In all cases a 96-well plate format protocol using calorimetric p-nitroaniline (pNA) substrate specific for each enzyme was used as described previously (Patent WO 00/09543) with some modifications to the serine protease assays. All enzymes were purchased from Sigma while the substrates were from Bachem.
(§2) Each assay included a 2 hr enzyme-inhibitor pre-incubation at RT followed by addition of substrate and hydrolysis to ˜30% conversion as measured on a Spectramax Pro microplate reader. Compound concentrations varied from 100 to 0.4 μM depending on their potency. […]
(§3) The percentage of inhibition was calculated using the formula: [1-((UVinh−UVblank)/(UVctl−UVblank))]×100 […]

A further experiment concerns the target T2, NS3/4A J4L6S strain (Hepatitis C virus genotype 1b, UniProt O92972, C1454S/C1711G).
T2 construct: DNA encoding the recombinant HCV NS3/4A protease complex (amino acids 1027 to 1711) for these strains; His tag (inferred from pET21b vector and Ni-NTA purification); made in house; host or cells: Escherichia coli BL21 (DE3)
Put plainly: Recombinant HCV NS3/4A protease complex FRET peptide assay, J4L6S strain. It is filed as biochemical, HCV genotype 1b. An excerpt:
(§4) Recombinant HCV NS3/4A Protease Complex FRET Peptide Assay
(§5) The purpose of this in vitro assay was to measure the inhibition of HCV NS3 protease complexes, derived from the BMS, H77C or J416S strains, as described below, by compounds of the present invention. This assay provides an indication of how effective compounds of the present invention would be in inhibiting HCV proteolytic activity.
(§6) Serum from an HCV-infected patient was obtained from Dr. T. Wright, San Francisco Hospital. An engineered full-length cDNA (compliment deoxyribonucleic acid) template of the HCV genome (BMS strain) was constructed from DNA fragments obtained by reverse transcription-PCR (RT-PCR) of serum RNA (ribonucleic acid) and using primers selected on the basis of homology between other genotype 1a strains. From the determination of the entire genome sequence, a genotype 1a was assigned to the HCV isolate according to the classification of Simmonds et al. (See P Simmonds, K A Rose, S Graham, S W Chan, F McOmish, B C Dow, E A Follett, P L Yap and H Marsden, J. Clin. Microbiol., 31(6), 1493–1503 (1993)). […]

The test system of experiment [2] is T3, human pancreatic chymotrypsin.
T3 construct: human pancreatic chymotrypsin
Put plainly: Specificity assay, chymotrypsin. As to conditions: 2 hr pre-incubation at RT. It is filed as biochemical. The protocol: as §1, §2, §3

For the next experiment, the target named is T4, NS3/4A BMS strain (UniProt P27958, C1454S/C1711G, species not given/STRAIN_BMS).
T4 construct: fused on or other part: Three-lysine solubilising tail at the C-terminus of NS4A
Put plainly: Recombinant HCV NS3/4A protease complex FRET peptide assay, BMS strain. It is filed as biochemical, HCV genotype 1a. As to conditions: read-out: IC50 against the NS3/4A BMS strain in the enzyme assay.
From the text: as §4, §5, §6

T1 sequence (P00772 27-266): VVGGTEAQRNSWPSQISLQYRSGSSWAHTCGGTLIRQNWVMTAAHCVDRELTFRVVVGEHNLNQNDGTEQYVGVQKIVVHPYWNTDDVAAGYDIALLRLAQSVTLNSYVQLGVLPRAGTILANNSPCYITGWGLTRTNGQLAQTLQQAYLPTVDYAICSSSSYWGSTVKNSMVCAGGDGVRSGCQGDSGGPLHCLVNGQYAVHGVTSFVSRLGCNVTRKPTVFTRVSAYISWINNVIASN
T2 sequence (O92972 1027-1711 C1454S/C1711G): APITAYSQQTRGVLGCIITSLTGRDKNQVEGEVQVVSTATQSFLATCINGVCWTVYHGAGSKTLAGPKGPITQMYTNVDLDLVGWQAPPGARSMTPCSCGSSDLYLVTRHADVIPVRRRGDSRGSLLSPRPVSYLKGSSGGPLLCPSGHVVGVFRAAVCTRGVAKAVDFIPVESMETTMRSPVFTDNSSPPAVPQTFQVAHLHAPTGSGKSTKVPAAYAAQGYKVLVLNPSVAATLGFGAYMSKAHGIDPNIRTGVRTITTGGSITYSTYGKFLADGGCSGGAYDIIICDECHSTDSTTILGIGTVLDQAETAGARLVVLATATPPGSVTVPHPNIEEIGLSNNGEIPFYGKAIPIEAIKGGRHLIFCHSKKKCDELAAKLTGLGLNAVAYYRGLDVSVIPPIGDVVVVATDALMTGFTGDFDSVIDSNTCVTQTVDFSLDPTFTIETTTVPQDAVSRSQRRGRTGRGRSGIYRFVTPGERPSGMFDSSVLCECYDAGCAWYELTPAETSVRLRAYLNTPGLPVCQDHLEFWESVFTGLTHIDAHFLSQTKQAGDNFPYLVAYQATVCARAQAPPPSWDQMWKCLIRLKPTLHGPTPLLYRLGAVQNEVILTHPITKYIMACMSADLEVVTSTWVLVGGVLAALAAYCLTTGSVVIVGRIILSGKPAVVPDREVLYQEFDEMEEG

As to `C=CC1C[C@]1(NC(=O)[C@@H]1C[C@@H](OC(=O)Nc2ccccc2-c2ccccc2)CN1C(=O)[C@@H](NC(=O)OC(C)(C)C)C(C)(C)C)C(=O)NS(=O)(=O)C1CC1` (stereo partly drawn) [Compound 8, BocNH-P3(t-BuGly)-P2(Hyp(O—CO(NH-biphen-2-yl)))-P1(1R,2S VinylAcca)—CONHSO2Cyclopropane], the IC50 in experiment [1] was over 100000 nM; at NS3/4A J4L6S strain, 9.5 nM; in experiment [2] it was over 100000 nM; at NS3/4A BMS strain, 51 nM.
